{
  "source": "patent US20240344241A1",
  "about": "“PROTEINACEOUS MOLECULES AND USES THEREFOR” (THE UNIVERSITY OF QUEENSLAND, priority 2021, published 2024)",
  "key": {"[1]": {"target": "T1, Human FXa (Homo sapiens, UniProt P00742)", "T1 construct": "Human β-FXIIa was obtained from Molecular Innovations, together with human FXa, human FXIa, human α-thrombin, and human plasma kallikrein; purchased Molecular Innovations; host or cells: purified from human plasma", "T1 sequence (P00742 235-488 limits assumed)": "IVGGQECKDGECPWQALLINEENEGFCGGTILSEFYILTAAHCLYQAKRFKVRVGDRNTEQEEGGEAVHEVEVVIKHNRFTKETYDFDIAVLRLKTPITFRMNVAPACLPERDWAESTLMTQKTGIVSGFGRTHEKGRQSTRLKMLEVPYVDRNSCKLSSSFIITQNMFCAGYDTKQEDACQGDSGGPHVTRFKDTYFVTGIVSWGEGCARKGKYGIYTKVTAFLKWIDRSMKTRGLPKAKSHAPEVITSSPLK", "T1 sequence (P00742 41-179 partner limits assumed)": "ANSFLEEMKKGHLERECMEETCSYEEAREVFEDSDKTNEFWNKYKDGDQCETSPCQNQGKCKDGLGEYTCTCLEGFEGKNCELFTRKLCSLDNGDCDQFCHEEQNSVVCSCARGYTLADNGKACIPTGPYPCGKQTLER", "assay": "FXa inhibition assay", "assay_type": "biochemical", "method": "(§1) The activity of acyclic and cyclic MCoFx1-5 and analogues thereof was assessed in competitive inhibition assays, as previously described in Swedberg et al. (2016) J Med Chem, 59: 7287-7292. Human β-FXIIa was obtained from Molecular Innovations, together with human FXa, human FXIa, human α-thrombin, and human plasma kallikrein. Human cationic trypsin and human plasmin were obtained from Sigma-Aldrich, and recombinant human matriptase was sourced from R&D Systems. Recombinant human urokinase (uPA) and recombinant human tissue plasminogen activator (tPA) were expressed in Expi293 cells, as previously described in Li et al. (2019) Chembiochem, 20: 46-50. FXIIa inhibition assays were performed in clear, low-binding 96-well plates using 250 μL (final volume) of assay buffer (0.1 M Tris-HCl pH 8.0, 0.1 M NaCl, 10 mM CaCl2 and 0.005% Triton X-100). Inhibitors were serially diluted and incubated with 10 nM FXIIa at room temperature to reach equilibrium. After adding 100 μM Ac-QRFR-pNA substrate (KM=162 μM), enzymatic activity was measured by monitoring release of the pNA moiety using a TECAN infinite M1000 Pro plate reader (A=405 nm, reading interval, 10 s; assay time course, 7 min). Assays were conducted in three times in duplicate. Substrate kinetic constants (Michaelis-Menten) and inhibition constants (Morrison K) were determined by non-linear regression using Prism 7 (GraphPad). Selectivity assays with off-target proteases were performed in a similar way, except that different concentrations of enzyme and substrate were used, as indicated in Table 16. For assays using a fluorescent substrate (peptide-4-methylcoumaryl-7-amide, MCA), black low-binding 96-well plates were used and activity was measured using a TECAN infinite M1000 pro plate reader (λex 360 nm, λem 460 nm, reading interval, 30 s; assay time course, 5-30 min)."}, "[2]": {"target": "T2, Rec. human matriptase (Homo sapiens, UniProt Q9Y5Y6)", "T2 construct": "purchased R&D Systems", "T2 sequence (Q9Y5Y6 615-855 limits assumed)": "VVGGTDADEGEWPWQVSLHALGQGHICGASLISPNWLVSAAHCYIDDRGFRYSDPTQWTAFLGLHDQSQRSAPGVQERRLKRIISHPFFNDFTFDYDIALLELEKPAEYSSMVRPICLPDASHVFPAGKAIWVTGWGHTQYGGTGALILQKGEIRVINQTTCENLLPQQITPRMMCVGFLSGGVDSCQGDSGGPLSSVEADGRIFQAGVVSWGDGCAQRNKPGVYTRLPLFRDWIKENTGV", "assay": "Matriptase inhibition assay", "assay_type": "biochemical", "conditions": "Table 10; read-out: Ki Matriptase", "procedure,_shortened": "(§2)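 Serially diluted inhibitors equilibrated at room temperature with 10 nM β-FXIIa in 0.1 M Tris-HCl pH 8.0, 0.1 M NaCl, 10 mM CaCl2, 0.005% Triton X-100; 100 μM Ac-QRFR-pNA (KM=162 μM), A405 over 7 min. Off-target proteases used differing enzyme/substrate levels, some with fluorogenic MCA substrates (ex 360/em 460 nm, 5-30 min). Morrison Ki by non-linear regression.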"}, "[3]": {"target": "T3, Human β-FXIIa (Homo sapiens, UniProt P00748)", "T3 construct": "Human β-FXIIa was obtained from Molecular Innovations, together with human FXa, human FXIa, human α-thrombin, and human plasma kallikrein; purchased Molecular Innovations; host or cells: purified from human plasma", "T3 sequence (P00748 373-615 limits assumed, other chains not shown)": "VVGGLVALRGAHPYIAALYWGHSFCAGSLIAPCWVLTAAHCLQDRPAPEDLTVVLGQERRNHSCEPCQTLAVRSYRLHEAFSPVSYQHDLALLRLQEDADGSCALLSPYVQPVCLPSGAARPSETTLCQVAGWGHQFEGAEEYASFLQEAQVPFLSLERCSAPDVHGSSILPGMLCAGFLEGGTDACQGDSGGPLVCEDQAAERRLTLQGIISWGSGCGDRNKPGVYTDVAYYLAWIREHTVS", "assay": "FXIIa competitive inhibition assay, colorimetric substrate Ac-QRFR-pNA", "assay_type": "biochemical", "procedure,_shortened": "as §2"}, "[4]": {"target": "T4, biotinylated human β-FXIIa (Homo sapiens, UniProt P00748)", "T4 construct": "purchased Molecular Innovations", "T4 sequence (P00748 373-615 limits assumed, other chains not shown)": "as above", "assay": "Surface plasmon resonance binding to FXIIa", "procedure,_shortened": "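Biacore T200 SPR with biotinylated β-FXIIa captured on a CAP chip, running buffer HBS-EP+ pH 7.4. Peptides injected as a concentration series, surface regenerated after each cycle; kinetics modelled with a 1:1 binding model.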"}, "[5]": {"tested_on": "human umbilical vein endothelial cells (HUVECs)"}, "[6]": {"target": "T5, Human FXIa (Homo sapiens, UniProt P03951)", "T5 construct": "Human β-FXIIa was obtained from Molecular Innovations, together with human FXa, human FXIa, human α-thrombin, and human plasma kallikrein; purchased Molecular Innovations; host or cells: purified from human plasma", "T5 sequence (P03951 388-625 limits assumed)": "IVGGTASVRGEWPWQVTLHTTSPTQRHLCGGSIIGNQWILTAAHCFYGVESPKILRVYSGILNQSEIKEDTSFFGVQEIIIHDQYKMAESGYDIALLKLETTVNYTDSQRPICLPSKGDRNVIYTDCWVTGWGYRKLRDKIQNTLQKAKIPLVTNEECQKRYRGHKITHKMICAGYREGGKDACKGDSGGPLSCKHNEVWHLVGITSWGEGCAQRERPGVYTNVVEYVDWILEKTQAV", "T5 sequence (P03951 19-387 partner limits assumed)": "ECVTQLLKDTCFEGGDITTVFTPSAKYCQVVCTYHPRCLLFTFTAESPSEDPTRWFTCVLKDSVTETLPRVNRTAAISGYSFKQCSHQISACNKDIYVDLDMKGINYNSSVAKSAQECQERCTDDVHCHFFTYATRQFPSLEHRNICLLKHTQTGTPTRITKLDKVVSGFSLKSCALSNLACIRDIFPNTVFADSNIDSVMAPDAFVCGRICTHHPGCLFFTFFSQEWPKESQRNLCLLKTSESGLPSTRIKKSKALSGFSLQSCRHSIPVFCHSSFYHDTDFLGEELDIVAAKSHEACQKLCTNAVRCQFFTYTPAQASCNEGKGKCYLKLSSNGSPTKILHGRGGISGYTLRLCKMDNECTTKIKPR", "assay": "FXIa inhibition assay", "assay_type": "biochemical", "method": "as §1"}, "[7]": {"target": "T6, Human thrombin (Homo sapiens, UniProt P00734)", "T6 construct": "Human β-FXIIa was obtained from Molecular Innovations, together with human FXa, human FXIa, human α-thrombin, and human plasma kallikrein; purchased Molecular Innovations; host or cells: purified from human plasma", "assay": "Thrombin inhibition assay", "assay_type": "biochemical", "method": "as §1"}, "[8]": {"target": "T7, Human plasma kallikrein (Homo sapiens, UniProt P03952)", "T7 construct": "Human β-FXIIa was obtained from Molecular Innovations, together with human FXa, human FXIa, human α-thrombin, and human plasma kallikrein; purchased Molecular Innovations; host or cells: purified from human plasma", "T7 sequence (P03952 391-638 limits assumed)": "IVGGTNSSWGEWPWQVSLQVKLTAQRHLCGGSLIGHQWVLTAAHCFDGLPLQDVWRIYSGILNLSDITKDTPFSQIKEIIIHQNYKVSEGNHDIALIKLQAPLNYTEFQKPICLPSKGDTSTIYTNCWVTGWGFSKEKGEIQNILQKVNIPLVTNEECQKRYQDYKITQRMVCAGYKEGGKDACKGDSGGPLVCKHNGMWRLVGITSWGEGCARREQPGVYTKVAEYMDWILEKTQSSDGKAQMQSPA", "T7 sequence (P03952 20-390 partner limits assumed)": "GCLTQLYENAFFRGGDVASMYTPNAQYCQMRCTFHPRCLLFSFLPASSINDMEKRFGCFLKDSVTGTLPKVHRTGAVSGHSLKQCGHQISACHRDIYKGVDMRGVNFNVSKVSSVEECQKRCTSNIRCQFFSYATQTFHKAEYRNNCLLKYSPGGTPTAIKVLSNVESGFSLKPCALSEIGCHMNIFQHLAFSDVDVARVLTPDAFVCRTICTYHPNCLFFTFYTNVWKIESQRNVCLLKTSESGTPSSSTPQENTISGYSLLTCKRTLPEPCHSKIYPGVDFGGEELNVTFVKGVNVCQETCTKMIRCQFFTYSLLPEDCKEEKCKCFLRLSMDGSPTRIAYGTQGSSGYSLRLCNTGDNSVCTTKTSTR", "assay": "Plasma kallikrein inhibition assay", "assay_type": "biochemical", "method": "as §1"}, "[9]": {"target": "T8, Rec. human uPA (Homo sapiens, UniProt P00749)", "T8 construct": "made in house; host or cells: Expi293 cells", "assay": "uPA inhibition assay", "assay_type": "biochemical", "method": "as §1"}},
  "note": "Bridge positions count the residues as written; N and C are the ends. Peptide text beside a SMILES is read from it.",
  "data": [
    {"smiles": "CC[C@H](C)[C@@H]1NC(=O)CNC(=O)CNC(=O)[C@H](CC(=O)O)NC(=O)[C@H](Cc2ccc(O)cc2)NC(=O)CNC(=O)[C@H](CO)NC(=O)CNC(=O)[C@@H]2CSSC[C@@H]3NC(=O)[C@H](CC(=O)O)NC(=O)[C@H](CO)NC(=O)[C@H](CC(=O)O)NC(=O)[C@H](CCCNC(=N)N)NC(=O)[C@H](CCCNC(=N)N)NC(=O)[C@@H]4CSSC[C@H](NC(=O)[C@H]([C@@H](C)CC)NC(=O)[C@H](CSSC[C@H](NC1=O)C(=O)N1CCC[C@H]1C(=O)N[C@@H](CCCNC(=N)N)C(=O)N[C@@H]([C@@H](C)CC)C(=O)NCC(=O)N[C@@H](CCCNC(=N)N)C(=O)N[C@@H](CC(C)C)C(=O)N4)NC(=O)[C@H](C)NC(=O)CNC(=O)[C@@H]1CCCN1C3=O)C(=O)N[C@@H](CCCNC(=N)N)C(=O)N[C@@H](C)C(=O)N[C@@H]([C@@H](C)O)C(=O)N[C@@H](CCCNC(=N)N)C(=O)N[C@@H](Cc1ccccc1)C(=O)N2", "note": "[MCoFx1 cyclic] (cyclo(ACICRATRFCGSGYDGGICPRIGRLCRRDSDCPG); disulfide 2-19, 4-26, 10-32)", "values": [
      {"measurement": "inhibition at 5 µM", "setting": "[1]; at 5 μM, read-out: percent inhibition FXa", "value": 0, "unit": "%"},
      {"measurement": "IC50", "setting": "[1]; read-out: IC50 FXa", "value": "> 5", "unit": "µM"},
      {"measurement": "Ki", "setting": "[2]", "value": 9.12, "unit": "µM"},
      {"measurement": "Ki", "setting": "[3]; Table 7, FXIIa, cyclic form of the peptide, read-out: Ki (nM) Cyclic", "value": "0.37 ± 0.04", "unit": "nM"},
      {"measurement": "fold more potent than MCoTI-II (FXIIa Ki)", "setting": "[3]; ratio of Ki values", "value": 350, "unit": "fold"},
      {"measurement": "difference in Ki FXIIa versus trypsin", "setting": "[3]; selectivity", "value": "exceeds three orders of magnitude"},
      {"measurement": "Kd", "setting": "[4]; Table 7, FXIIa, cyclic form of the peptide, read-out: KD (nM) Cyclic", "value": "0.9 ± 0.04", "unit": "nM"},
      {"measurement": "fold higher affinity for FXIIa than MCoTI-II", "setting": "[4]; ratio of KD values", "value": 60, "unit": "fold"},
      {"measurement": "cytotoxicity to HUVECs", "setting": "[5]", "value": "not toxic"},
      {"measurement": "inhibition at 5 µM", "setting": "[6]; at 5 μM, read-out: percent inhibition FXIa", "value": 0, "unit": "%"},
      {"measurement": "IC50", "setting": "[6]; read-out: IC50 FXIa", "value": "> 5", "unit": "µM"},
      {"measurement": "inhibition at 5 µM", "setting": "[7]; at 5 μM, read-out: percent inhibition Thrombin", "value": 2, "unit": "%"},
      {"measurement": "IC50", "setting": "[7]; read-out: IC50 Thrombin", "value": "> 5", "unit": "µM"},
      {"measurement": "inhibition at 5 µM", "setting": "[8]; at 5 μM, read-out: percent inhibition Plasma kallikrein", "value": 0, "unit": "%"},
      {"measurement": "IC50", "setting": "[8]; read-out: IC50 Plasma kallikrein", "value": "> 5", "unit": "µM"},
      {"measurement": "inhibition at 5 µM", "setting": "[9]; at 5 μM, read-out: percent inhibition uPA", "value": 0, "unit": "%"},
      {"measurement": "IC50", "setting": "[9]; read-out: IC50 uPA", "value": "> 5", "unit": "µM"}
    ]}
  ]
}
